Among the test systems are SK-MEL-28 melanoma; SN12C renal; NCI-H23 lung; PC-3 prostate; BT-549 breast; SK-MEL-5 melanoma; A549 NSCLC; MDA-MB-231 breast; SK-OV-3 ovarian; TK-10 renal.
Holding throughout (assay): DTP human tumour cell line panel, 48 h

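48-hour exposure; five concentrations; linearly interpolated endpoints. TGI denotes the concentration required for complete inhibition of growth.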

Broadly, the TGI is the concentration at which net growth stops. A lower TGI goes with more potent growth arrest. Regarding `c1ccc2[nH]c3[nH]c4[nH]c5ccccc5[nH]c4[nH]c3[nH]c2c1`, the total growth inhibition concentration (TGI) in the experiment with SK-MEL-28 melanoma, in the experiment on SN12C renal, with NCI-H23 lung, in the experiment with PC-3 prostate, in the experiment with BT-549 breast and in the experiment on SK-MEL-5 melanoma was > 100 µM throughout. Moreover, the total growth inhibition concentration (TGI) with A549 NSCLC, with MDA-MB-231 breast, in the experiment with SK-OV-3 ovarian and in the experiment on TK-10 renal was > 100 µM each time.

In the case of `Cn1cc2c(=O)n3ncn(-c4ccc(Br)cc4)c3nc2n1`, the concentration for total growth inhibition (TGI) in the experiment with SK-MEL-28 melanoma, in the experiment with SN12C renal, in the experiment on NCI-H23 lung, in the experiment with PC-3 prostate, in the experiment with BT-549 breast and with SK-MEL-5 melanoma was > 100 µM in each case. For the same compound, the TGI in the experiment with A549 NSCLC, in the experiment on MDA-MB-231 breast, in the experiment on SK-OV-3 ovarian and in the experiment on TK-10 renal was > 100 µM in each case.

For the compound `COc1cc(C)cc2c1C(=O)C(Br)=CC2=O`, the total growth inhibition concentration (TGI) came out at 33.3 µM in the experiment on SK-MEL-28 melanoma; 30.9 µM with SN12C renal; 39.4 µM in the experiment with NCI-H23 lung; 31.3 µM in the experiment with PC-3 prostate; 23.2 µM in the experiment with BT-549 breast; 25.1 µM in the experiment on SK-MEL-5 melanoma. In addition, the TGI in the experiment with A549 NSCLC came out at 43.4 µM; with MDA-MB-231 breast, 30.2 µM; in the experiment on SK-OV-3 ovarian it was 33.8 µM; with TK-10 renal, 5.9 µM.

Regarding `C=C(C)[C@@H]1CC[C@@H](C)[C@](O)([C@@H]2C[C@@H]([C@H](COC(=O)c3ccccc3)OC(=O)c3ccccc3)OC2=O)C1`, the concentration for total growth inhibition (TGI) with SK-MEL-28 melanoma, in the experiment on SN12C renal, in the experiment on NCI-H23 lung, with PC-3 prostate, in the experiment on BT-549 breast and in the experiment on SK-MEL-5 melanoma was > 100 µM throughout. Moreover, the concentration for total growth inhibition (TGI) in the experiment on A549 NSCLC, in the experiment with MDA-MB-231 breast, with SK-OV-3 ovarian and in the experiment with TK-10 renal was > 100 µM in each case.

`COc1ccc(C2CC(=O)Oc3ccccc3O2)cc1` (stereo unspecified): the total growth inhibition concentration (TGI) with SK-MEL-28 melanoma, in the experiment with SN12C renal, in the experiment with NCI-H23 lung, in the experiment with PC-3 prostate, in the experiment with BT-549 breast and in the experiment on SK-MEL-5 melanoma was > 100 µM in each case. Also, the total growth inhibition concentration (TGI) in the experiment on A549 NSCLC, in the experiment with MDA-MB-231 breast, with SK-OV-3 ovarian and with TK-10 renal was > 100 µM throughout.

Take `CCCCCC(=O)OCC(=O)[C@H]1[C@H](C)C[C@H]2[C@@H]3C[C@H](F)C4=C/C(=N/OC(=O)c5cccc6c(=O)c7ccccc7[nH]c56)C=C[C@]4(C)[C@H]3[C@@H](O)C[C@@]21C`: the total growth inhibition concentration (TGI) is > 100 µM in the experiment on SN12C renal; > 100 µM in the experiment with NCI-H23 lung; 53.8 µM in the experiment with PC-3 prostate; 66.5 µM with BT-549 breast; 27.8 µM in the experiment on SK-MEL-5 melanoma; > 100 µM in the experiment with A549 NSCLC. The TGI in the experiment with MDA-MB-231 breast, in the experiment on SK-OV-3 ovarian and in the experiment with TK-10 renal was > 100 µM each time.

In the case of `COC(=O)C(/C(=N/N)C(=O)Nc1cc(Cl)c(Cl)cc1Cl)c1nc2ccc(Cl)cc2[nH]c1=O` (stereo unspecified), the TGI in the experiment on SK-MEL-28 melanoma, in the experiment on SN12C renal, in the experiment on NCI-H23 lung, in the experiment with PC-3 prostate, with BT-549 breast and in the experiment on SK-MEL-5 melanoma was > 100 µM in each case. Also, the TGI in the experiment with A549 NSCLC, in the experiment with MDA-MB-231 breast, in the experiment with SK-OV-3 ovarian and with TK-10 renal was > 100 µM each time.

In the case of `CS(=O)(=O)c1[nH]nc2[nH]c(=O)[nH]c(=O)c12`, the TGI in the experiment with SK-MEL-28 melanoma, in the experiment with SN12C renal, in the experiment with NCI-H23 lung, in the experiment with PC-3 prostate, in the experiment with BT-549 breast and with SK-MEL-5 melanoma was > 10 µM in each case. Also, the TGI with A549 NSCLC, in the experiment with MDA-MB-231 breast, in the experiment with SK-OV-3 ovarian and in the experiment on TK-10 renal was > 10 µM throughout.

`CC1(C)CCCCCCCCCC(C)(CCCO)C1=O` (stereo unspecified): the TGI with SK-MEL-28 melanoma turned out to be 34.2 µM; with SN12C renal, 32.2 µM; in the experiment with NCI-H23 lung, 29.1 µM; in the experiment with PC-3 prostate, 27 µM; in the experiment on BT-549 breast it was 31.6 µM; in the experiment on SK-MEL-5 melanoma it was 31.3 µM. The TGI turned out to be 28.8 µM in the experiment on A549 NSCLC, 28.7 µM in the experiment with MDA-MB-231 breast and 31.4 µM in the experiment on SK-OV-3 ovarian.

In the case of `O=c1oc2cc(O)ccc2c(O)c1C(c1ccccn1)c1c(O)c2ccc(O)cc2oc1=O`, the total growth inhibition concentration (TGI) with SK-MEL-28 melanoma, with SN12C renal, in the experiment on NCI-H23 lung, in the experiment on PC-3 prostate, with BT-549 breast and with SK-MEL-5 melanoma was > 100 µM in each case. The TGI with A549 NSCLC, in the experiment on MDA-MB-231 breast, in the experiment on SK-OV-3 ovarian and in the experiment with TK-10 renal was > 100 µM throughout.

In the case of `CN(C)c1ccc(/C=C2\N=C(N/N=C/c3ccccc3)NC2=O)cc1`, the TGI in the experiment with SK-MEL-28 melanoma, in the experiment with SN12C renal, in the experiment with NCI-H23 lung, with PC-3 prostate, with BT-549 breast and in the experiment on SK-MEL-5 melanoma was > 100 µM throughout. Moreover, the total growth inhibition concentration (TGI) in the experiment on A549 NSCLC, in the experiment on MDA-MB-231 breast, with SK-OV-3 ovarian and with TK-10 renal was > 100 µM each time.

As to `CC(=O)OCC1OC(n2c3c(c(-c4ccc(Cl)cc4)c(C#N)c2=S)C(=O)CC(C)(C)C3)C(OC(C)=O)C(OC(C)=O)C1OC(C)=O` (stereo unspecified), the TGI with SK-MEL-28 melanoma is 65.9 µM; with SN12C renal it was > 53.4 µM; in the experiment with NCI-H23 lung it was > 100 µM; in the experiment with PC-3 prostate, 63.6 µM; with BT-549 breast it was 12.8 µM; in the experiment on SK-MEL-5 melanoma it was 48.2 µM. The concentration for total growth inhibition (TGI) with A549 NSCLC was > 100 µM; with MDA-MB-231 breast it was 37 µM; in the experiment with TK-10 renal, > 100 µM.

In the case of `CCOC(=O)c1c2c(c(O)c3ccccc3c(O)n(-c3ccc(C)cc3)c1C)C(=O)C=CC2=O`, the TGI is 58.9 µM in the experiment with SN12C renal; 52 µM with NCI-H23 lung; > 100 µM in the experiment on PC-3 prostate; 71.2 µM in the experiment with BT-549 breast; 31.9 µM in the experiment on SK-MEL-5 melanoma; > 100 µM with A549 NSCLC. Also, the values for the total growth inhibition concentration (TGI) in the experiment on MDA-MB-231 breast, in the experiment on SK-OV-3 ovarian and in the experiment with TK-10 renal were 55.7 µM, 89.7 µM and 57.2 µM, respectively.

Consider `C[C@]12CC(c3ccccc3O1)C(C#N)C(=O)N2` (stereo partly specified), for which the total growth inhibition concentration (TGI) in the experiment on SK-MEL-28 melanoma, in the experiment on SN12C renal, in the experiment on NCI-H23 lung, in the experiment on PC-3 prostate, in the experiment with BT-549 breast and with SK-MEL-5 melanoma was > 100 µM throughout. Moreover, the TGI in the experiment with A549 NSCLC, in the experiment with MDA-MB-231 breast and in the experiment on SK-OV-3 ovarian was > 100 µM throughout.

In the case of `CCOc1ccc(N/C(=C(/C(Cl)=C(/Cl)NCCO)[N+](=O)[O-])n2nnc3ccccc32)cc1`, the total growth inhibition concentration (TGI) in the experiment on SK-MEL-28 melanoma is 37.7 µM; with SN12C renal it was 49.1 µM; in the experiment on NCI-H23 lung it was 33 µM; with PC-3 prostate, 86.4 µM; with BT-549 breast, 38.6 µM; in the experiment with A549 NSCLC, > 100 µM. For the same compound, the figures for the concentration for total growth inhibition (TGI) with MDA-MB-231 breast and with SK-OV-3 ovarian were 63.8 µM and > 100 µM, respectively.

Consider `CCOC(=O)c1cc(C2CCN(CC(C)CC)C2=S)c(C(=O)/C=C(/C)N)[nH]1` (stereo unspecified), for which the TGI in the experiment with SN12C renal, in the experiment on NCI-H23 lung, in the experiment on PC-3 prostate, in the experiment with BT-549 breast, in the experiment with SK-MEL-5 melanoma and with MDA-MB-231 breast was > 50 µM throughout. Moreover, the concentration for total growth inhibition (TGI) with SK-OV-3 ovarian and in the experiment on TK-10 renal was > 50 µM each time.

Turning to `CC(C)C[C@H](NC(=O)CCc1ccccc1)B(O)O`, the TGI is 32.4 µM in the experiment with SK-MEL-28 melanoma; 61.5 µM with SN12C renal; > 100 µM in the experiment on NCI-H23 lung; > 100 µM in the experiment on PC-3 prostate; 57.6 µM in the experiment on BT-549 breast; 22.8 µM with SK-MEL-5 melanoma. For the same compound, the concentration for total growth inhibition (TGI) is > 100 µM with A549 NSCLC, 36.2 µM in the experiment on MDA-MB-231 breast and 55.8 µM in the experiment on TK-10 renal.

Take `Cc1ccc(S(=O)(=O)NC(=O)NCC(=O)NCC(=O)O)cc1`: the TGI in the experiment with SK-MEL-28 melanoma, in the experiment with NCI-H23 lung, in the experiment on PC-3 prostate, in the experiment on BT-549 breast, in the experiment on SK-MEL-5 melanoma and with A549 NSCLC was > 100 µM in each case. Further, the concentration for total growth inhibition (TGI) with MDA-MB-231 breast, in the experiment on SK-OV-3 ovarian and in the experiment with TK-10 renal was > 100 µM throughout.

As for `CCOC(=O)c1nnsc1NC(=O)Nc1ccc(Cl)cc1`, the TGI with SK-MEL-28 melanoma, in the experiment with SN12C renal, in the experiment on NCI-H23 lung, in the experiment on PC-3 prostate, with BT-549 breast and in the experiment on SK-MEL-5 melanoma was > 100 µM in each case. The results for the TGI with A549 NSCLC, in the experiment on MDA-MB-231 breast and in the experiment with TK-10 renal were > 100 µM, 52.7 µM and > 100 µM, respectively.

Turning to `CC(=N/NC(=S)Nc1c(C)n(C)n(-c2ccccc2)c1=O)/C(C)=N\NC(=S)Nc1c(C)n(C)n(-c2ccccc2)c1=O`, the concentration for total growth inhibition (TGI) in the experiment with NCI-H23 lung, in the experiment with PC-3 prostate, in the experiment with BT-549 breast, in the experiment with SK-MEL-5 melanoma, in the experiment on A549 NSCLC and in the experiment on MDA-MB-231 breast was > 100 µM in each case. Also, the TGI in the experiment on SK-OV-3 ovarian and in the experiment on TK-10 renal was > 100 µM throughout.

Values taken from PubChem BioAssay (NCI).
